{"source": "patent US20190134000A1", "about": "“COMPOUNDS TO PROMOTE NORMAL PROCESSING OF APP” (Buck Institute for Research on Aging, priority 2016, published 2019)", "key": {"CYP2D6": {"target": "CYP2D6 (Homo sapiens, UniProt P10635)", "sequence (P10635 whole entry)": "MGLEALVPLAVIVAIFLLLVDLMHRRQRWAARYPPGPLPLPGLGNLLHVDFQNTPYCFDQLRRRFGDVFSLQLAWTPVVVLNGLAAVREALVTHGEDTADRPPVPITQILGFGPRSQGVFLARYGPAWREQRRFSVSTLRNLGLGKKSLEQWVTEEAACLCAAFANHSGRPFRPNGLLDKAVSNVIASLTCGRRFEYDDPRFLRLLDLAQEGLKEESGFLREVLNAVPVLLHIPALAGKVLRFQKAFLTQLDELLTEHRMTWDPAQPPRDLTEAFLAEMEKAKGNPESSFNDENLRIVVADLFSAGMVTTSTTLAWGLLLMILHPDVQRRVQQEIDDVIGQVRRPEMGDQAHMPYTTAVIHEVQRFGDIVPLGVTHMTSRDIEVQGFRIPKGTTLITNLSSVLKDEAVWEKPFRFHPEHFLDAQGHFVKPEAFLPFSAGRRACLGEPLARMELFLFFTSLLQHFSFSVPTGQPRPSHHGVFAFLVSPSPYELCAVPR", "experiment": "CYP inhibition screen CYP2D6", "type": "in vitro ADME"}, "S9 stability, human": {"experiment": "S9 stability, human", "type": "in vitro ADME"}, "S9 stability, guinea pig": {"experiment": "S9 stability, guinea pig", "type": "in vitro ADME"}, "AD mouse model": {"system": "AD mouse model", "experiment": "Synaptic load, synaptophysin labeling of hippocampus", "type": "in vivo", "method": "FIG. 16 illustrates mechanistic confirmation studies for determination of synaptic load.\nMechanistic confirmation studies for determination of synaptic load were performed using antibody-labeling of synaptophysin with a green fluorescent tag. […] The improvements in NLR and NOR may be correlated to the restoration of synaptic load, increases in sAPPα or the sAPPα/sAPPβ ratio; increases in the sAPPα/Aβ1-42 ratio; decreases in the p-tau/tau ratio, and/or decreases in APPneo (c-terminal cleavage)."}, "[1]": {"experiment": "Panel binding test (Cerep broad screening panel)"}, "[2]": {"experiment": "Acute non-GLP toxicity study, oral 450 mg/kg", "type": "in vivo, rats", "conditions": "for concentration at 24 h: rat, in vivo", "method": "Acute non-GLP toxicity study was performed using an oral dose of 450 mg/kg. At 24 hours post-dosing, brain levels were 2924 ng/g and plasma levels were 115 ng/ml."}, "S9 stability, monkey": {"experiment": "S9 stability, monkey", "type": "in vitro ADME"}, "CYP2C19": {"target": "CYP2C19 (Homo sapiens, UniProt P33261)", "sequence (P33261 whole entry)": "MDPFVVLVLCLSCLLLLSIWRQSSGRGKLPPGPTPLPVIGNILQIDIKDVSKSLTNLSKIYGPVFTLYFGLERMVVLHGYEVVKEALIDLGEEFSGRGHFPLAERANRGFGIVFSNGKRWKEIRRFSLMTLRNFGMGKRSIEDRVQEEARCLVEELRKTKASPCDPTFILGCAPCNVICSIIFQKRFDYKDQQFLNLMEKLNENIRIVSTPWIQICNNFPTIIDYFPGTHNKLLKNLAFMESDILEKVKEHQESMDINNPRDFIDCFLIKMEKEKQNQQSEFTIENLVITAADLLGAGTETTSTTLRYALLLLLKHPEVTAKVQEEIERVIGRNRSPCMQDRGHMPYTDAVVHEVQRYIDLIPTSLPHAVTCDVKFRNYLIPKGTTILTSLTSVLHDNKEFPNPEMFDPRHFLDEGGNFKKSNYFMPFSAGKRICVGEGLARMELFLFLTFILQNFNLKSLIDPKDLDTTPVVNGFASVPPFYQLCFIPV", "experiment": "CYP inhibition screen CYP2C19", "type": "in vitro ADME"}, "S9 stability, mouse": {"experiment": "S9 stability, mouse", "type": "in vitro ADME"}, "in vitro": {"experiment": "in vitro", "method": "The second batch of C41 was tested for plasma protein binding, ADME-tox screening (microsomal intrinsic clearance), and ADME-tox screening (CYP inhibition screen). PK in rats was determined to determine a dose of non-GLP Pharm-Tox screening. Additionally, acute toxicity in rats (pre-subchronic toxicity) and non-GLP subchronic toxicity was determined."}, "in vivo": {"experiment": "in vivo", "conditions": "rat", "method": "Top panel: Levels after oral delivery at 10 mk at 1, 8, and 24 hours; levels after oral delivery at 40 mk at 24 hours only. Bottom panel: IV delivery at 2.5 mk. Note brain levels in ng/g, plasma levels in ng/ml.\nFIG. 13 illustrates C41 pharmacokinetic parameters in rat.\nC41 pharmacokinetics were determined in a rat (see, FIG. 12, Table 9). […] Brain tissue was collected at 1, 8, and 24 hours. Plasma peak was 150 ng/ml and brain was 3251 ng/g. C41 peaked at 8 hours. […] Brain tissue was collected at 30 min, 6 hours, and 24 hours. Plasma peak was 564 ng/ml, at 1 minute and brain peak was 629 ng/g at 30 minutes. The 30 minute brain:plasma ratio was 8. Oral availability was determined to be about 100% (see, e.g. FIG. 13)."}, "CYP1A2": {"target": "T1, CYP1A2 (Homo sapiens, UniProt P05177)", "T1 sequence (P05177 1-516)": "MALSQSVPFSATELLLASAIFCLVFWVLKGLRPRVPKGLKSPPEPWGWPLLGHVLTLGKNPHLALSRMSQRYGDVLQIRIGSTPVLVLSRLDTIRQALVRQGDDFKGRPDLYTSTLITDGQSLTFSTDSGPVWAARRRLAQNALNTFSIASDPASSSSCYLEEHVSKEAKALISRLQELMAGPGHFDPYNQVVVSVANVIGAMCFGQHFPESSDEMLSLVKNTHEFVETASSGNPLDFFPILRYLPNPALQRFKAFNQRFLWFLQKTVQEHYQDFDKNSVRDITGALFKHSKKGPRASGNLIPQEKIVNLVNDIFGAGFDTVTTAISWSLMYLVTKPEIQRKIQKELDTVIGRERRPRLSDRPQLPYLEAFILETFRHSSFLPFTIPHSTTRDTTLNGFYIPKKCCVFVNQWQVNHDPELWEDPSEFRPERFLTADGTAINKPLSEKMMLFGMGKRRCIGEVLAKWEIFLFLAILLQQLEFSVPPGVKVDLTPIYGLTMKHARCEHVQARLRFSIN", "experiment": "CYP inhibition screen CYP1A2", "type": "in vitro ADME"}, "CYP2C9": {"target": "CYP2C9 (Homo sapiens, UniProt P11712)", "sequence (P11712 whole entry)": "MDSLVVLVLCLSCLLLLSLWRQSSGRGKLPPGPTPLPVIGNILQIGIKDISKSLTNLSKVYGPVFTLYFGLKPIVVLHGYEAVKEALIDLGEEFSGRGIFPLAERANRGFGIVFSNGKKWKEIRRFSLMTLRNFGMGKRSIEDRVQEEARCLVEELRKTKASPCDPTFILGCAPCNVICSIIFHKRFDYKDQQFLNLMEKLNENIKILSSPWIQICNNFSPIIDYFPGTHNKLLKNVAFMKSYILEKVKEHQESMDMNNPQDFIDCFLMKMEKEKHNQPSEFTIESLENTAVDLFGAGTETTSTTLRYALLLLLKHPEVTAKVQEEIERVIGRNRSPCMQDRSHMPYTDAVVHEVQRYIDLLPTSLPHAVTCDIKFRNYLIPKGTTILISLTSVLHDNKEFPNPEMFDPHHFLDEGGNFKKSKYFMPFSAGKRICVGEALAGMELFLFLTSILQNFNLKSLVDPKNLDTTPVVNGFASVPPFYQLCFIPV", "experiment": "CYP inhibition screen CYP2C9", "type": "in vitro ADME"}}, "note": "“Also recorded” adds a separate entry of the source. Like-named read-outs stand apart in the source and are kept apart here.", "data": [{"smiles": "CN1[C@@H]2CC[C@H]1C[C@@H](OC(=O)c1c[nH]c3cc(F)ccc13)C2", "note": "[Compound C41, (1R,3R,5S)-8-methyl-8-azabicyclo[3.2.1]octan-3-yl 6-fluoro-1H-indole-3-carboxylate]", "values": [{"measurement": "IC50", "setting": "CYP2D6", "result": "> 30", "unit": "µM"}, {"measurement": "inhibition at 10 µM", "setting": "CYP2D6; human", "result": 19.9, "unit": "%"}, {"measurement": "inhibition at 30 µM", "setting": "CYP2D6; human", "result": 36.1, "unit": "%"}, {"measurement": "Metabolic Half-Life Human S9", "setting": "S9 stability, human", "result": ">1", "unit": "h"}, {"measurement": "half-life", "setting": "S9 stability, human", "result": "> 1", "unit": "h"}, {"measurement": "Metabolic Half-Life Guinea Pig S9", "setting": "S9 stability, guinea pig", "result": ">1", "unit": "h"}, {"measurement": "half-life", "setting": "S9 stability, guinea pig", "result": "> 1", "unit": "h"}, {"measurement": "synaptic load / synaptic density in hippocampus", "setting": "AD mouse model", "result": "restore synaptic density; also recorded: restored synaptic load"}, {"measurement": "profile in panel binding test / activity in broad screening panel", "setting": "[1]", "result": "clean profile; also recorded: Overall clean"}, {"measurement": "solubility", "setting": "physchem", "result": 80, "unit": "mM"}, {"measurement": "solubility", "setting": "physchem; water", "result": 85, "unit": "mM"}, {"measurement": "acute toxicity finding", "setting": "[2]; oral 450 mg/kg, likely due to the corn syrup vehicle", "result": "some dilation of the vessels on the surface of the intestine"}, {"measurement": "concentration at 24 h", "setting": "[2]; po, 450 mg/kg", "result": 0.115, "unit": "µg/mL"}, {"measurement": "concentration at 24 h", "setting": "[2]; oral 450 mg/kg, 24 hours post-dosing, read-out: brain levels", "result": 2920, "unit": "ng/g"}, {"measurement": "Metabolic Half-Life Monkey S9", "setting": "S9 stability, monkey", "result": ">1", "unit": "h"}, {"measurement": "half-life", "setting": "S9 stability, monkey", "result": "> 1", "unit": "h"}, {"measurement": "IC50", "setting": "CYP2C19", "result": "> 30", "unit": "µM"}, {"measurement": "inhibition at 10 µM", "setting": "CYP2C19; human", "result": 0, "unit": "%"}, {"measurement": "inhibition at 30 µM", "setting": "CYP2C19; human", "result": 0, "unit": "%"}, {"measurement": "Metabolic Half-Life Mouse S9", "setting": "S9 stability, mouse", "result": ">1", "unit": "h"}, {"measurement": "half-life", "setting": "S9 stability, mouse", "result": "> 1", "unit": "h"}, {"measurement": "microsomal CLint at 1 μM", "setting": "in vitro; dog, microsomes, NADPH-Dependent CLint", "result": 45.7, "unit": "µL/min/mg"}, {"measurement": "half-life at 1 μM", "setting": "in vitro; dog, microsomes, NADPH-Dependent T1/2", "result": 0.843, "unit": "h"}, {"measurement": "microsomal CLint at 1 μM", "setting": "in vitro; dog, microsomes, NADPH-Free CLint", "result": "< 9.6", "unit": "µL/min/mg"}, {"measurement": "half-life at 1 μM", "setting": "in vitro; dog, microsomes, NADPH-Free T1/2", "result": "> 4", "unit": "h"}, {"measurement": "Plasma protein binding", "setting": "in vitro; human", "result": "74.3 (human)"}, {"measurement": "recovery", "setting": "in vitro; human", "result": 115, "unit": "%"}, {"measurement": "half-life", "setting": "in vitro; human, microsomes", "result": "> 4", "unit": "h"}, {"measurement": "half-life at 1 μM", "setting": "in vitro; human, microsomes", "result": "> 4", "unit": "h"}, {"measurement": "microsomal CLint at 1 μM", "setting": "in vitro; human, microsomes", "result": "< 9.6", "unit": "µL/min/mg"}, {"measurement": "NADPH-Free CLint", "setting": "in vitro; human, microsomes, 1 μM", "result": "<9.6", "unit": "µL/min/mg"}, {"measurement": "NADPH-Free T1/2", "setting": "in vitro; human, microsomes, 1 μM", "result": ">4", "unit": "h"}, {"measurement": "Mean Plasma Fraction Bound", "setting": "in vitro; human, plasma", "result": 74.3, "unit": "%"}, {"measurement": "fraction unbound", "setting": "in vitro; human, plasma", "result": 0.257}, {"measurement": "microsomal CLint at 1 μM", "setting": "in vitro; rat, microsomes, NADPH-Dependent CLint", "result": 187, "unit": "µL/min/mg"}, {"measurement": "half-life at 1 μM", "setting": "in vitro; rat, microsomes, NADPH-Dependent T1/2", "result": 0.207, "unit": "h"}, {"measurement": "microsomal CLint at 1 μM", "setting": "in vitro; rat, microsomes, NADPH-Free CLint", "result": "< 9.6", "unit": "µL/min/mg"}, {"measurement": "half-life at 1 μM", "setting": "in vitro; rat, microsomes, NADPH-Free T1/2", "result": "> 4", "unit": "h"}, {"measurement": "Oral availability", "setting": "in vivo", "result": "about 100%"}, {"measurement": "bioavailability", "setting": "in vivo", "result": "~98", "unit": "%"}, {"measurement": "AUC (0-t)", "setting": "in vivo; iv", "result": "AUC (0-t) ng-min/g = 400605.0"}, {"measurement": "AUC(0-t)", "setting": "in vivo; iv", "result": 0.33, "unit": "µg·h/mL"}, {"measurement": "Clearance (CL)", "setting": "in vivo; iv", "result": "Clearance (CL) g/min/Kg = 0.006."}, {"measurement": "Kp at 0.5 h", "setting": "in vivo; iv", "result": 8}, {"measurement": "Volume of distribution steady state", "setting": "in vivo; iv", "result": "g/Kg = 2.9."}, {"measurement": "clearance", "setting": "in vivo; iv", "result": 6.72, "unit": "L/h/kg"}, {"measurement": "AUC", "setting": "in vivo; iv, 2.5 mg/kg", "result": 0.373, "unit": "µg·h/mL"}, {"measurement": "MRT", "setting": "in vivo; iv, 2.5 mg/kg, MRT", "result": 6.63, "unit": "h"}, {"measurement": "Cmax", "setting": "in vivo; iv, Cmax", "result": 629, "unit": "ng/g"}, {"measurement": "Cmax", "setting": "in vivo; iv, Cmax plasma", "result": 0.564, "unit": "µg/mL"}, {"measurement": "MRT", "setting": "in vivo; iv, Mean residence time (MRT)", "result": 6.64, "unit": "h"}, {"measurement": "MRT", "setting": "in vivo; iv, Mean residence time (MRT) area", "result": 8.33, "unit": "h"}, {"measurement": "AUC (0-t)", "setting": "in vivo; po", "result": "AUC (0-t) ng-min/g = 793672.5"}, {"measurement": "AUC(0-t)", "setting": "in vivo; po", "result": 1.97, "unit": "µg·h/mL"}, {"measurement": "Clearance (CL)", "setting": "in vivo; po", "result": "Clearance (CL) g/min/Kg = 0.087."}, {"measurement": "T1/2 elimination", "setting": "in vivo; po", "result": "T1/2 elimination = 154.022 min."}, {"measurement": "clearance", "setting": "in vivo; po", "result": 5.04, "unit": "L/h/kg"}, {"measurement": "time of peak", "setting": "in vivo; po", "result": 8, "unit": "h"}, {"measurement": "AUC", "setting": "in vivo; po, 10 mg/kg", "result": 1.97, "unit": "µg·h/mL"}, {"measurement": "MRT", "setting": "in vivo; po, 10 mg/kg, MRT", "result": 21.7, "unit": "h"}, {"measurement": "Cmax", "setting": "in vivo; po, Cmax", "result": 3250, "unit": "ng/g"}, {"measurement": "Cmax", "setting": "in vivo; po, Cmax plasma", "result": 0.15, "unit": "µg/mL"}, {"measurement": "half-life", "setting": "in vivo; po, T1/2 elimination", "result": 2.41, "unit": "h"}, {"measurement": "Tmax", "setting": "in vivo; po, Tmax", "result": 6.33, "unit": "h"}, {"measurement": "Tmax", "setting": "in vivo; po, Tmax oral", "result": 8, "unit": "h"}, {"measurement": "IC50", "setting": "CYP1A2", "result": "> 30", "unit": "µM"}, {"measurement": "inhibition at 10 µM", "setting": "CYP1A2; human", "result": 0.35, "unit": "%"}, {"measurement": "inhibition at 30 µM", "setting": "CYP1A2; human", "result": 0.33, "unit": "%"}, {"measurement": "IC50", "setting": "CYP2C9", "result": "> 30", "unit": "µM"}, {"measurement": "inhibition at 10 µM", "setting": "CYP2C9; human", "result": 11.4, "unit": "%"}, {"measurement": "inhibition at 30 µM", "setting": "CYP2C9; human", "result": 21.6, "unit": "%"}]}]}
